The source of these data is publication PMC12314110, “Evaluation of Potential Effects of CYP3A Inhibition and CYP3A Induction on the Pharmacokinetics of Fruquintinib in Healthy Subjects” (Clinical Pharmacology in Drug Development, 2025).

Series [1] has as its system P‐gp. Particulars: no reference given; cited from earlier work.
Series [2] can be described thus: Safety assessments (adverse events) in healthy subjects. To be noted: Part A, fruquintinib 5 mg alone or with itraconazole, healthy subjects. In kind it is in vivo, human. Here is the method:
Safety was assessed by evaluation of adverse events (AEs), serious AEs, AEs of special interest, physical examinations, vital signs, single 12‐lead electrocardiograms and cardiac monitoring, and clinical laboratory data. All AEs were coded using the Medical Dictionary for Regulatory Activities Version 23.0, and their severity was graded using the National Cancer Institute Common Terminology Criteria for Adverse Events Version 5.0.

On the set-up of series [3]: method as in PMID 28730290. To be noted: mass balance study, major circulating metabolite; cited from earlier work.

On to `CNC(=O)c1c(C)oc2cc(Oc3ncnc4cc(OC)c(OC)cc34)ccc12` [Fruquintinib], for which the “P‐gp substrate” value in series [1] is reported as “not a P‐gp substrate”. Besides, the adverse events entry in series [2] was “no AEs reported”.

Consider `COc1cc2ncnc(Oc3ccc4c(C(N)=O)c(C)oc4c3)c2cc1OC` [M11], for which the “share of total radioactivity exposure in plasma” value in series [3] is “approximately 17%”.
